Reference: publication PMC10065799, “High-throughput profiling of sequence recognition by tyrosine kinases and SH2 domains using bacterial peptide display” (eLife, 2023)

How the values were obtained:
[1] = biological target: T1, c-Src kinase domain (Homo sapiens, UniProt P12931); assay: pTyr-Var library bacterial peptide display kinase screen (enrichment scores); format: biochemical; conditions: for Screen: sheet "Src";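 for c-Src hit?: Hit requires p below 0.05 and at least twofold variant vs reference change plus filters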;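 for screen: log2 fold change in enrichment of variant over reference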
[2] = tested on: Jak2; assay: as above; format: biochemical, human
[3] = tested on: Grb2 SH2 domain; assay: pTyr-Var library SH2 domain screen with SH2-dynabeads (enrichment scores)
[4] = tested on: AncSZ kinase domain; assay: pTyr-Var library bacterial peptide display kinase screen (enrichment scores); format: biochemical;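 for AncSZ hit?: Hit requires p below 0.05 and at least twofold variant vs reference change plus filters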
[5] = tested on: EPHB2 kinase domain; assay: as above; format: biochemical, human; conditions: for Screen: sheet EPHB2, effect of variant peptide relative to its reference peptide in the pTyr-Var library screen (enrichment scores);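 for screen: log2 fold change in enrichment of variant over reference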
[6] = tested on: Fer kinase domain; assay: as above; format: biochemical, mouse; conditions: for Screen: sheet "Fer";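 for Fer hit?: Hit requires p below 0.05 and at least twofold variant vs reference change plus filters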;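 for screen: log2 fold change in enrichment of variant over reference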
[7] = tested on: FGFR3 kinase domain; assay: as above; format: biochemical, human
[8] = tested on: Fyn kinase domain; assay: as above; format: biochemical, human;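 for Fyn hit?: Hit requires p below 0.05 and at least twofold variant vs reference change plus filters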
[9] = biological target: c-Src SH2 domain (Homo sapiens, UniProt P12931); assay: pTyr-Var library SH2 domain screen with SH2-dynabeads (enrichment scores); conditions: sheet c-Src
[10] = tested on: EPHB1 kinase domain; assay: pTyr-Var library bacterial peptide display kinase screen (enrichment scores); format: biochemical, human; conditions: for Screen: sheet EPHB1, effect of the variant peptide relative to its reference peptide in the pTyr-Var library screen (enrichment scores); for Screen (variant relative to reference peptide, measured in the pTyr-Var library screen): sheet "EPHB1", variant seq vs reference seq, bacterial peptide display enrichment
[11] = tested on: SHP2 C-SH2 domain; assay: pTyr-Var library SH2 domain screen with SH2-dynabeads (enrichment scores)
[12] = tested on: FGFR1 kinase domain; assay: pTyr-Var library bacterial peptide display kinase screen (enrichment scores); format: biochemical, human
[13] = tested on: Hck kinase domain; assay: as above; format: biochemical, human
[14] = biological target: T2, c-Abl kinase domain (Mus musculus, UniProt P00520); assay: as above; format: biochemical; conditions: for Screen: fig5-data2, sheet "Abl", Screen for the variant/reference peptide pair;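 for screen: log2 fold change in enrichment of variant over reference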
T2 sequence (P00520 242-493 limits assumed): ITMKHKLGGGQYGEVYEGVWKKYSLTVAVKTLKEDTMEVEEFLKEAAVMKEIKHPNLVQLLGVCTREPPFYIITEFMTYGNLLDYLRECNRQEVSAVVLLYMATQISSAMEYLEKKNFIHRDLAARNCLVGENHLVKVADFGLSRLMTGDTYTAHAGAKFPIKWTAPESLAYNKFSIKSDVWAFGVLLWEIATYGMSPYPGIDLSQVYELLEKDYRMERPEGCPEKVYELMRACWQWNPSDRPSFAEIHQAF

[15] = tested on: Fes; assay: as above; format: biochemical
[16] = tested on: MERTK kinase domain; assay: as above; format: biochemical, human
[17] = biological target: T1, c-Src kinase domain; assay: ADP-Quest continuous fluorimetric kinase assay (Michaelis-Menten parameters and initial rates); format: biochemical; conditions: c-Src kinase domain 10 nM, 100 μM ATP, 37 °C, three to five replicates, error = standard error of global Michaelis-Menten fit
Excerpt: A fluorescence-based assay from Eurofins (ADP Quest) was used to measure the Michaelis-Menten kinetic parameters for phosphorylation of the consensus peptides by purified tyrosine kinase domains. In this assay, ADP production as a result of kinase activity is coupled to the production of resorufin, a fluorophore that emits signal at 590 nm. For all experiments, the assay reactions were set up as described in the provided assay kit protocol, in a 384 well plate format. The peptide solutions were serially diluted in 100 mM Tris, pH 8.0, and the kinases were diluted to 50 nM in buffer (10 mM HEPES, 100 mM NaCl, 1 mM TCEP, 5 mM MgCl2, 10% (v/v) glycerol). The final reaction mixtures contained 10 nM of kinase with 100 μM of ATP. […] Phosphorylation reaction progress was monitored by measuring fluorescence at excitation 530 nm and emission 590 nm every 2 min at 37 °C on a plate reader (BioTek Synergy Neo 2). The fluorescence units (RFU) were converted to μM ADP by comparison to a standard curve, and the initial rates were extracted from the linear regime of the reaction progress curves. Initial rates were also measured for samples containing each kinase but lacking a peptide substrate, to account for background ATP hydrolysis. This background rate was subtracted from the rates measured in the presence of peptide. […]

[18] = mean of log2 of enrichment over R1-R4
[19] = pTyr-Var library, enrichment score, replicate 1
[20] = pTyr-Var library, enrichment score, replicate 3
[21] = pTyr-Var library, enrichment score, replicate 4
[22] = variant versus reference peptide
[23] = variant versus reference peptide, significant hit TRUE/FALSE
[24] = mean of log2(variant) minus mean of log2(reference)
[25] = mean of log2 enrichment of variant peptide, n = 4
[26] = mean of log2 enrichment of variant peptide, n = 5
[27] = effect of the variant peptide relative to its reference peptide in the pTyr-Var library screen
[28] = value of the variant peptide against its reference peptide in the pTyr-Var library screen with Fer
[29] = variant peptide versus its reference peptide in the pTyr-Var library screen
[30] = variant peptide relative to its reference peptide, pTyr-Var library screen enrichment

## GMAHNYRNRSQ [AASS_Y188_S191R]
[1]; [18]
  c-Src mean of log2(enrichment): -1.078
[1]; [19]
  c-Src enrich. R1: 0.5961
[1]; [20]
  c-Src enrich. R3: 0.5045
[1]; [21]
  c-Src enrich. R4: 0.4581
[1]; [22]
  c-Src difference (mean log2 variant - mean log2 reference): 0.3253
[1]; [23]
  c-Src hit?: FALSE
[2]; mean of log2 of enrichment over R1-R3
  Jak2 mean of log2(enrichment): -1.127
[2]; [20]
  Jak2 enrich. R3: 0.7448
[2]; [22]
  Jak2 difference (mean log2 variant - mean log2 reference): 0.1075
[2]; [23]
  Jak2 hit?: FALSE
[3]; Grb2 SH2, mean of log2(variant) minus mean of log2(reference)
  difference: -0.06902
[3]; Grb2 SH2, mean of log2 enrichment of variant, R1-R3
  mean of log2(variant): -0.6418
[3]; Grb2 SH2, variant versus reference significant hit call
  hit?: FALSE
[4]; mean of log2 of enrichment over R1-R5
  AncSZ mean of log2(enrichment): -0.8229
[4]; [19]
  AncSZ enrich. R1: 0.4421
[4]; [20]
  AncSZ enrich. R3: 0.7733
[4]; [21]
  AncSZ enrich. R4: 0.7058
[4]; pTyr-Var library, enrichment score, replicate 5
  AncSZ enrich. R5: 0.7616
[4]; [22]
  AncSZ difference (mean log2 variant - mean log2 reference): -0.03377
[4]; [23]
  AncSZ hit?: FALSE
[5]; [24]
  difference: -0.2462
[5]; [25]
  mean of log2(variant): -1.376
[6]; [18]
  Fer mean of log2(enrichment): -1.585
[6]; [19]
  Fer enrich. R1: 0.273
[6]; [20]
  Fer enrich. R3: 0.5188
[6]; [21]
  Fer enrich. R4: 0.4406
[6]; [22]
  Fer difference (mean log2 variant - mean log2 reference): -0.1949
[6]; [23]
  Fer hit?: FALSE
[7]; [24]
  difference: -0.0947
[7]; [26]
  mean of log2(variant): -1.326
[8]; [18]
  Fyn mean of log2(enrichment): -1.18
[8]; [19]
  Fyn enrich. R1: 0.3131
[8]; [20]
  Fyn enrich. R3: 0.443
[8]; [21]
  Fyn enrich. R4: 0.884
[8]; [22]
  Fyn difference (mean log2 variant - mean log2 reference): 0.1477
[8]; [23]
  Fyn hit?: FALSE
[9]; [24]
  difference: -0.07136
[9]; mean of log2 enrichment of variant peptide, R1-R3
  mean of log2(variant): -1.19
[10]; [24]
  difference: 0.7368
[10]; [25]
  mean of log2(variant): -1.347
[11]; SHP2-C SH2, mean of log2(variant) minus mean of log2(reference)
  difference: -0.6126
[11]; SHP2-C SH2, mean of log2 enrichment of variant, R1-R3
  mean of log2(variant): -1.425
[11]; SHP2-C SH2, variant versus reference significant hit call
  hit?: FALSE
[12]; [24]
  difference: -0.1712
[12]; [26]
  mean of log2(variant): -1.608
[12]; pTyr-Var library, variant peptide enrichment, mean of n = 5
  var. mean: 0.3444
[13]; mean of log2(variant) / mean of log2(reference), R1-R4
  Hck mean of log2(enrichment): 0.5234
[13]; [19]
  Hck enrich. R1: 0.3364
[13]; [20]
  Hck enrich. R3: 0.4885
[13]; [21]
  Hck enrich. R4: 0.9262
[13]; [22]
  Hck difference (variant - reference): 0.1099
[13]; [23]
  Hck hit?: FALSE
[14]; [18]
  c-Abl mean of log2(enrichment): -0.8983
[14]; [19]
  c-Abl enrich. R1: 0.3489
[14]; [20]
  c-Abl enrich. R3: 0.6113
[14]; [21]
  c-Abl enrich. R4: 0.4438
[14]; [23]
  c-Abl hit?: FALSE
[15]; mean of log2 of enrichment over R1-R6
  Fes mean of log2(enrichment): -0.768
[15]; [22]
  Fes difference (mean log2 variant - mean log2 reference): 0.4232
[16]; [24]
  difference: 0.1021
[16]; [25]
  mean of log2(variant): -1.214

## FSMGCYEIFLG [HMGCL_Y198_S201Y_YF]
[1]; [27]
  Screen: 1.946
[5]
  Screen: 0.8942
[6]; [28]
  Screen: 1.084
[10]
  Screen: 0.9243
[14]; pTyr-Var library
  Screen: 0.9187

## Ac-GAEEEIYGEFEAKKKG-NH2 [SrcTide (1995), previously reported c-Src consensus substrate (Songyang et al., 1995)]
[17]
  Km: 64 ± 10 µM
  kcat: 3.1±0.2 s^–1

## SSSAIYDNPDL [DCP1B_Y191_N195D]
[1]; [27]
  Screen: -1.087
[5]
  Screen: -0.486
[6]; [28]
  Screen: -0.4908
[10]
  Screen: -0.6114
[14]; pTyr-Var library
  Screen: 1.925

## IKRIDYEFVEM [ADA_Y84_A83D]
[5]
  Screen: 2.863
[6]; [28]
  Screen: -0.7273
[10]
  Screen: 3.957
[14]; pTyr-Var library
  Screen: 0.5744

## PANMVYSTVEI [SLAMF7_Y304_T302M]
[1]; [29]
  Screen: 0.01938
[5]
  Screen: 0.9599
[6]; [30]
  Screen: -0.2345
[10]
  Screen (variant relative to reference peptide, measured in the pTyr-Var library screen): 0.5023

## NVKGIYAVADV [GSR_Y371_G374A]
[1]; [27]
  Screen: -0.2612
[5]
  Screen: 2.725
[6]; [28]
  Screen: 1.853
[10]
  Screen: 1.714

## MENFIYESMQF [CYP19A1_Y361_R365Q_YF]
[1]; [27]
  Screen: 0.1198
[5]
  Screen: 1.167
[6]; [28]
  Screen: 0.2137
[10]
  Screen: 0.9498

## VDGSVYELHPS [GCK_Y413_K414E]
[1]; [27]
  Screen: 1.442
[5]
  Screen: 2.546
[6]; [28]
  Screen: 4.734
[10]
  Screen: 2.239

## QMVGMYASFFM [AVPR2_Y124_S127F_YF]
[1]; [27]
  Screen: 2.334
[5]
  Screen: 1.338
[6]; [28]
  Screen: 2.583
[10]
  Screen: 1.725

## FAELVYTSFWH [ASS1_Y322_G324S]
[1]; [27]
  Screen: -0.03781
[5]
  Screen: 0.4289
[6]; [28]
  Screen: 0.3535
[10]
  Screen: 0.4613

## ASTHIYQIMNH [ITK_Y588_V587I]
[1]; [27]
  Screen: 0.7541
[5]
  Screen: 2.415
[6]; [28]
  Screen: 2.332
[10]
  Screen: 3.124

## VFLGAYDHFLP [SLC22A5_Y486_R488H_YF]
[1]; [29]
  Screen: -0.3296
[5]
  Screen: 1.125
[6]; [30]
  Screen: 2.03
[10]
  Screen (variant relative to reference peptide, measured in the pTyr-Var library screen): 0.9383
